In the assay the test system is HEK293 cells. Put plainly: Preliminary screening as mRNA vectors, EGFP mRNA transfection of HEK293 cells. The format is cell-based. To be noted: EGFP mRNA 50 ng per well, 96-well plates; percentage of GFP fluorescent cells relative to total number of cells (Hoechst). Put shortly:
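HEK293 cells in DMEM plus 10% FBS transfected in 96-well format with 50 ng EGFP mRNA per well; Lipofectamine2000 served as positive control. Read-out is the percentage of GFP-fluorescent cells among total cells, counted by Hoechst nuclear stain.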

62 compounds from patent US20230123334A1, “AMINO LIPID COMPOUND, PREPARATION METHOD THEREFOR, AND APPLICATION THEREOF” (SHENZHEN SHENXIN BIOTECHNOLOGY CO., LTD., priority 2020, published 2023) can be followed below.

On to `CCCCCCCCCCCCSc1nc(NCC2CCN(C)CC2)nc(SCCCCCC)n1` [Compound D10S6S12], for which the “Absolute mRNA transfection efficiency in HEK293 cells” value (“Absolute mRNA transfection efficiency” for short) turned out to be 41.2%. For `CCCCCCCCCCCCCCSc1nc(NCC2CCN(C)CC2)nc(SCCCCCC)n1` [Compound D10S6S14], the “Absolute mRNA transfection efficiency” value came out at 54.4%. As to `CCCCCCCCCCCCCCCSc1nc(NCC2CCN(C)CC2)nc(SCCCCCC)n1` [Compound D10S6S15], the “Absolute mRNA transfection efficiency” value stood at 40.0%. Turning to `CCCCCCCCCCCCCCCCSc1nc(NCC2CCN(C)CC2)nc(SCCCCCC)n1` [Compound D10S6S16], the “Absolute mRNA transfection efficiency” value amounted to 85.5%. On to `CCCCCCCCCCCCCCCCCCSc1nc(NCC2CCN(C)CC2)nc(SCCCCCC)n1` [Compound D10S6S18], for which the “Absolute mRNA transfection efficiency” value amounted to 72.8%. With `CCCCCCCSc1nc(NCCCCCC)nc(NCC2CCN(C)CC2)n1` [Compound D10S7N6] the figure was 2.0%; with `CCCCCCCNc1nc(NCC2CCN(C)CC2)nc(SCCCCCCC)n1` [Compound D10S7N7], 0.9%.

On to `CCCCCCCCNc1nc(NCC2CCN(C)CC2)nc(SCCCCCCC)n1` [Compound D10S7N8], for which the “Absolute mRNA transfection efficiency” value was 1.3%.

`CCCCCCCCCNc1nc(NCC2CCN(C)CC2)nc(SCCCCCCC)n1` [Compound D10S7N9]: the “Absolute mRNA transfection efficiency” value turned out to be 4.6%. For the compound `CCCCCCCCCCCNc1nc(NCC2CCN(C)CC2)nc(SCCCCCCC)n1` [Compound D10S7N11], the “Absolute mRNA transfection efficiency” value is 25.3%. Then `CCCCCCCCCCCCNc1nc(NCC2CCN(C)CC2)nc(SCCCCCCC)n1` [Compound D10S7N12], with 63.7%; and `CCCCCCCCCCCCCNc1nc(NCC2CCN(C)CC2)nc(SCCCCCCC)n1` [Compound D10S7N13], with 70.8%; and `CCCCCCCCCCCCCCCNc1nc(NCC2CCN(C)CC2)nc(SCCCCCCC)n1` [Compound D10S7N15], with 67.3%. Regarding `CCCCCCCCCCCCCCCCNc1nc(NCC2CCN(C)CC2)nc(SCCCCCCC)n1` [Compound D10S7N16], the “Absolute mRNA transfection efficiency” value turned out to be 44.3%.

Turning to `CCCCCCCCCCCCCCCCCCNc1nc(NCC2CCN(C)CC2)nc(SCCCCCCC)n1` [Compound D10S7N18], the “Absolute mRNA transfection efficiency” value was determined as 45.8%. As for `CCCCCCCSc1nc(NCC2CCN(C)CC2)nc(SCCCCCCC)n1` [Compound D10S7S7], the “Absolute mRNA transfection efficiency” value is 19.3%. Then `CCCCCCCCSc1nc(NCC2CCN(C)CC2)nc(SCCCCCCC)n1` [Compound D10S7S8], with 32.9%; and `CCCCCCCCCSc1nc(NCC2CCN(C)CC2)nc(SCCCCCCC)n1` [Compound D10S7S9], with 33.5%; and `CCCCCCCCCCSc1nc(NCC2CCN(C)CC2)nc(SCCCCCCC)n1` [Compound D10S7S10], with 55.8%. As to `CCCCCCCCCCCSc1nc(NCC2CCN(C)CC2)nc(SCCCCCCC)n1` [Compound D10S7S11], the “Absolute mRNA transfection efficiency” value is on record as 60.8%. Take `CCCCCCCCCCCCSc1nc(NCC2CCN(C)CC2)nc(SCCCCCCC)n1` [Compound D10S7S12]: the “Absolute mRNA transfection efficiency” value was determined as 80.4%. Regarding `CCCCCCCCCCCCCCSc1nc(NCC2CCN(C)CC2)nc(SCCCCCCC)n1` [Compound D10S7S14], the “Absolute mRNA transfection efficiency” value is 88.7%.

In the case of `CCCCCCCCCCCCCCCSc1nc(NCC2CCN(C)CC2)nc(SCCCCCCC)n1` [Compound D10S7S15], the “Absolute mRNA transfection efficiency” value was determined as 90.4%.

For `CCCCCCCCCCCCCCCCSc1nc(NCC2CCN(C)CC2)nc(SCCCCCCC)n1` [Compound D10S7S16], the “Absolute mRNA transfection efficiency” value stood at 73.7%.

For the compound `CCCCCCCCCCCCCCCCCCSc1nc(NCC2CCN(C)CC2)nc(SCCCCCCC)n1` [Compound D10S7S18], the “Absolute mRNA transfection efficiency” value is listed as 90.5%. On to `CCCCCCCCSc1nc(NCCCCCC)nc(NCC2CCN(C)CC2)n1` [Compound D10S8N6], for which the “Absolute mRNA transfection efficiency” value was determined as 0.4%. For `CCCCCCCCSc1nc(NCCCCCCC)nc(NCC2CCN(C)CC2)n1` [Compound D10S8N7], the “Absolute mRNA transfection efficiency” value was found to be 0.3%. Consider `CCCCCCCCNc1nc(NCC2CCN(C)CC2)nc(SCCCCCCCC)n1` [Compound D10S8N8], for which the “Absolute mRNA transfection efficiency” value turned out to be 1.2%.

Take `CCCCCCCCCNc1nc(NCC2CCN(C)CC2)nc(SCCCCCCCC)n1` [Compound D10S8N9]: the “Absolute mRNA transfection efficiency” value came to 30.2%.

As to `CCCCCCCCCCCNc1nc(NCC2CCN(C)CC2)nc(SCCCCCCCC)n1` [Compound D10S8N11], the “Absolute mRNA transfection efficiency” value was found to be 81.5%.

As to `CCCCCCCCCCCCNc1nc(NCC2CCN(C)CC2)nc(SCCCCCCCC)n1` [Compound D10S8N12], the “Absolute mRNA transfection efficiency” value was 73.1%. In the case of `CCCCCCCCCCCCCNc1nc(NCC2CCN(C)CC2)nc(SCCCCCCCC)n1` [Compound D10S8N13], the “Absolute mRNA transfection efficiency” value worked out at 75.0%. As for `CCCCCCCCCCCCCCCNc1nc(NCC2CCN(C)CC2)nc(SCCCCCCCC)n1` [Compound D10S8N15], the “Absolute mRNA transfection efficiency” value amounted to 53.3%. As for `CCCCCCCCCCCCCCCCNc1nc(NCC2CCN(C)CC2)nc(SCCCCCCCC)n1` [Compound D10S8N16], the “Absolute mRNA transfection efficiency” value amounted to 36.4%.

As for `CCCCCCCCCCCCCCCCCCNc1nc(NCC2CCN(C)CC2)nc(SCCCCCCCC)n1` [Compound D10S8N18], the “Absolute mRNA transfection efficiency” value is 20.1%.

For `CCCCCCCCSc1nc(NCC2CCN(C)CC2)nc(SCCCCCCCC)n1` [Compound D10S8S8], the “Absolute mRNA transfection efficiency” value is on record as 50.8%.

As to `CCCCCCCCCSc1nc(NCC2CCN(C)CC2)nc(SCCCCCCCC)n1` [Compound D10S8S9], the “Absolute mRNA transfection efficiency” value is given as 37.6%. With `CCCCCCCCCCSc1nc(NCC2CCN(C)CC2)nc(SCCCCCCCC)n1` [Compound D10S8S10] the figure was 74.2%; with `CCCCCCCCCCCSc1nc(NCC2CCN(C)CC2)nc(SCCCCCCCC)n1` [Compound D10S8S11], 67.0%. Then `CCCCCCCCCCCCSc1nc(NCC2CCN(C)CC2)nc(SCCCCCCCC)n1` [Compound D10S8S12], with 67.9%. `CCCCCCCCCSc1nc(NCCCCCC)nc(NCC2CCN(C)CC2)n1` [Compound D10S9N6]: the “Absolute mRNA transfection efficiency” value is recorded as 0.6%. In the case of `CCCCCCCCCSc1nc(NCCCCCCC)nc(NCC2CCN(C)CC2)n1` [Compound D10S9N7], the “Absolute mRNA transfection efficiency” value was 0.9%. Regarding `CCCCCCCCCSc1nc(NCCCCCCCC)nc(NCC2CCN(C)CC2)n1` [Compound D10S9N8], the “Absolute mRNA transfection efficiency” value amounted to 16.3%. For the compound `CCCCCCCCCNc1nc(NCC2CCN(C)CC2)nc(SCCCCCCCCC)n1` [Compound D10S9N9], the “Absolute mRNA transfection efficiency” value worked out at 70.0%.

As to `CCCCCCCCCCCNc1nc(NCC2CCN(C)CC2)nc(SCCCCCCCCC)n1` [Compound D10S9N11], the “Absolute mRNA transfection efficiency” value was 66.0%.

Turning to `CCCCCCCCCCCCNc1nc(NCC2CCN(C)CC2)nc(SCCCCCCCCC)n1` [Compound D10S9N12], the “Absolute mRNA transfection efficiency” value was 57.0%.

As to `CCCCCCCCCCCCCNc1nc(NCC2CCN(C)CC2)nc(SCCCCCCCCC)n1` [Compound D10S9N13], the “Absolute mRNA transfection efficiency” value is 75.8%.

Turning to `CCCCCCCCCCCCCCCNc1nc(NCC2CCN(C)CC2)nc(SCCCCCCCCC)n1` [Compound D10S9N15], the “Absolute mRNA transfection efficiency” value is given as 17.5%. As to `CCCCCCCCCCCCCCCCNc1nc(NCC2CCN(C)CC2)nc(SCCCCCCCCC)n1` [Compound D10S9N16], the “Absolute mRNA transfection efficiency” value amounted to 30.2%. With `CCCCCCCCCCCCCCCCCCNc1nc(NCC2CCN(C)CC2)nc(SCCCCCCCCC)n1` [Compound D10S9N18], the “Absolute mRNA transfection efficiency” value stood at 22.4%. As to `CCCCCCCCCCSc1nc(NCCCCCC)nc(NCC2CCN(C)CC2)n1` [Compound D10S10N6], the “Absolute mRNA transfection efficiency” value came to 0.5%. `CCCCCCCCCCSc1nc(NCCCCCCC)nc(NCC2CCN(C)CC2)n1` [Compound D10S10N7]: the “Absolute mRNA transfection efficiency” value is 1.0%. Consider `CCCCCCCCCCSc1nc(NCCCCCCCC)nc(NCC2CCN(C)CC2)n1` [Compound D10S10N8], for which the “Absolute mRNA transfection efficiency” value came out at 1.7%. Take `CCCCCCCCCCSc1nc(NCCCCCCCCC)nc(NCC2CCN(C)CC2)n1` [Compound D10S10N9]: the “Absolute mRNA transfection efficiency” value is listed as 4.2%. With `CCCCCCCCCCCNc1nc(NCC2CCN(C)CC2)nc(SCCCCCCCCCC)n1` [Compound D10S10N11] the figure was 8.8%; with `CCCCCCCCCCCCNc1nc(NCC2CCN(C)CC2)nc(SCCCCCCCCCC)n1` [Compound D10S10N12], 15.5%. With `CCCCCCCCCCCCCNc1nc(NCC2CCN(C)CC2)nc(SCCCCCCCCCC)n1` [Compound D10S10N13] the figure was 8.5%. As for `CCCCCCCCCCCCCCCNc1nc(NCC2CCN(C)CC2)nc(SCCCCCCCCCC)n1` [Compound D10S10N15], the “Absolute mRNA transfection efficiency” value is listed as 13.2%. Consider `CCCCCCCCCCCCCCCCNc1nc(NCC2CCN(C)CC2)nc(SCCCCCCCCCC)n1` [Compound D10S10N16], for which the “Absolute mRNA transfection efficiency” value worked out at 15.4%.

As for `CCCCCCCCCCCCCCCCCCNc1nc(NCC2CCN(C)CC2)nc(SCCCCCCCCCC)n1` [Compound D10S10N18], the “Absolute mRNA transfection efficiency” value stood at 6.0%. Turning to `CCCCCCCCCCCSc1nc(NCCCCCC)nc(NCC2CCN(C)CC2)n1` [Compound D10S11N6], the “Absolute mRNA transfection efficiency” value is listed as 6.8%.

Take `CCCCCCCCCCCSc1nc(NCCCCCCC)nc(NCC2CCN(C)CC2)n1` [Compound D10S11N7]: the “Absolute mRNA transfection efficiency” value came to 18.2%.
